Results from US11407715B2, “Substituted indoline derivatives as dengue viral replication inhibitors” (JANSSEN PHARMACEUTICALS, INC., priority 2017, dated 2022).

Key:
DENV-2 16681 strain = assay: microbe, parasite or virus in culture; assay type: cell-based, Dengue virus; conditions: for EC50: DENV-2 16681 eGFP, Vero cells, MOI 0.5, 3 days; for SI: SI=CC50/EC50, DENV-2 antiviral assay
in vitro = conditions: African green monkey
[1] = Dengue virus, DENV2, Vero, 72 h

SMILES | EC50 (DENV-2 16681 strain) | SI (DENV-2 16681 strain) | CC50 (in vitro) | EC50 (DENV-2 16681 strain; [1])
COc1cc(NC(C(=O)N2CCc3cc(OC)c(C(F)(F)F)cc32)c2ccc(Cl)cc2)cc(OCC2CC(C(=O)O)C2)c1 (stereo not drawn) [Compound 24, (1s,3s)-3-((3-((1-(4-chlorophenyl)-2-(5-methoxy-6-(trifluoromethyl)indolin-1-yl)-2-oxoethyl)amino)-5-methoxyphenoxy)methyl)-cyclobutanecarboxylic Acid] | 0.64 nM | 18300 | 12 µM | –
COc1cc(NC(C(=O)N2CCc3ccc(OC(F)(F)F)cc32)c2ccc(Cl)cc2)cc(OCC2CC2C(=O)O)c1 (stereo not drawn) [Compound 6AA] | 0.74 nM | 8870 | 8.3 µM | –
COc1cc(NC(C(=O)N2CCc3cc(OC)c(C(F)(F)F)cc32)c2ccc(Cl)cc2)cc(OCCC(C)(C)C(=O)O)c1 (single isomer, unassigned) [Compound 21A] | 16 nM | 687 | 11 µM | –
COc1cc(NC(C(=O)N2CCc3ccc(OC(F)(F)F)cc32)c2ccc(Cl)cc2)cc(OCCC(=O)O)c1 (racemic) [Compound 12, 3-(3-((1-(4-chlorophenyl)-2-oxo-2-(6-(trifluoromethoxy)indolin-1-yl)ethyl)amino)-5-methoxyphenoxy)propanoic acid] | – | 9440 | 11 µM | 1.1 nM
COc1cc(NC(C(=O)N2CCc3ccc(OC(F)(F)F)cc32)c2ccc(Cl)cc2)cc(OCCC(C)(C)C(=O)O)c1 (racemic) [Compound 2, 4-(3-((1-(4-chlorophenyl)-2-oxo-2-(6-(trifluoromethoxy)indolin-1-yl)ethyl)amino)-5-methoxyphenoxy)-2,2-dimethylbutanoic acid] | – | 19200 | 12 µM | 0.62 nM
COc1cc(NC(C(=O)N2CCc3ccc(OC(F)(F)F)cc32)c2ccc(Cl)cc2)cc(OCCC(=O)O)c1 (single isomer, unassigned) [Compound 12A] | 38 nM | 267 | 10 µM | –
COc1cc(NC(C(=O)N2CCc3ccc(OC(F)(F)F)cc32)c2ccc(Cl)cc2)cc(OCC2(CC(=O)O)CC2)c1 (racemic) [Compound 5, 2-(1-((3-((1-(4-chlorophenyl)-2-oxo-2-(6-(trifluoromethoxy)indolin-1-yl)ethyl)amino)-5-methoxyphenoxy)methyl)cyclopropyl)acetic acid] | – | 11300 | 9.7 µM | 0.92 nM
COc1cc(NC(C(=O)N2CCc3cc(OC)c(C(F)(F)F)cc32)c2ccc(Cl)cc2)cc(OCC2CC2C(=O)O)c1 (stereo not drawn) [Compound 22AA] | 16 nM | 798 | 13 µM | –
COc1cc(NC(C(=O)N2CCc3ccc(OC(F)(F)F)cc32)c2ccc(Cl)cc2)cc(OC2CC(C(=O)O)C2)c1 (stereo not drawn) [Compound 7] | 0.49 nM | 14600 | 12 µM | –
COc1cc(NC(C(=O)N2CCc3ccc(OC(F)(F)F)cc32)c2ccc(Cl)cc2)cc(OC23CC(C(=O)O)(C2)C3)c1 (single isomer, unassigned) [Compound 9A] | 90 nM | 125 | 11 µM | –
COc1cc(NC(C(=O)N2CCc3ccc(OC(F)(F)F)cc32)c2ccc(Cl)cc2)cc(OCC2CC(C(=O)O)C2)c1 (stereo not drawn) [Compound 10] | 0.27 nM | 44900 | 12 µM | –
COc1cc(NC(C(=O)N2CCc3ccc(OC(F)(F)F)cc32)c2ccc(Cl)cc2)cc(OCC23CC(C(=O)O)(C2)C3)c1 (racemic) [Compound 9, 3-((3-((1-(4-chlorophenyl)-2-oxo-2-(6-(trifluoro-methoxy)indolin-1-yl)ethyl)amino)-5-methoxyphenoxy)methyl)bicyclo[1.1.1]pentane-1-carboxylic acid] | – | 14700 | 9.8 µM | 0.7 nM
COc1cc(NC(C(=O)N2CCc3ccc(OC(F)(F)F)cc32)c2ccc(Cl)cc2)cc(OCCC2(C(=O)O)CC2)c1 (racemic) [Compound 3, 1-(2-(3-((1-(4-chlorophenyl)-2-oxo-2-(6-(trifluoromethoxy)indolin-1-yl)ethyl)amino)-5-methoxyphenoxy)ethyl)cyclopropane-1-carboxylic acid] | – | 17700 | 10 µM | 0.5 nM
COc1cc(NC(C(=O)N2CCc3ccc(OC(F)(F)F)cc32)c2ccc(Cl)cc2OC)cc(OCCC(C)C(=O)O)c1 (racemic) [Compound 17, 4-(3-((1-(4-chloro-2-methoxyphenyl)-2-oxo-2-(6-(trifluoromethoxy)indolin-1-yl)ethyl)amino)-5-methoxyphenoxy)-2-methylbutanoic acid] | – | 100043 | 13 µM | 0.18 nM
COc1cc(NC(C(=O)N2CCc3ccc(OC(F)(F)F)cc32)c2ccc(Cl)cc2OC)cc(OCCC(C)(C)C(=O)O)c1 (single isomer, unassigned) [Compound 18A] | 9.9 nM | 1160 | 12 µM | –
COc1cc(CCCC(=O)O)cc(NC(C(=O)N2CCc3ccc(OC(F)(F)F)cc32)c2ccc(Cl)cc2)c1 (single isomer, unassigned) [Compound 15A] | 49 nM | 171 | 8.4 µM | –
COc1cc(NC(C(=O)N2CCc3ccc(OC(F)(F)F)cc32)c2ccc(Cl)cc2)cc(OCCCCC(=O)O)c1 (racemic) [Compound 13, 5-(3-((1-(4-chlorophenyl)-2-oxo-2-(6-(trifluoromethoxy)-indolin-1-yl)ethyl)amino)-5-methoxyphenoxy)pentanoic acid] | – | 38100 | 12 µM | 0.25 nM
COc1cc(CCCCC(=O)O)cc(NC(C(=O)N2CCc3ccc(OC(F)(F)F)cc32)c2ccc(Cl)cc2)c1 (racemic) [Compound 14, 5-(3-((1-(4-chlorophenyl)-2-oxo-2-(6-(trifluoromethoxy)indolin-1-yl)ethyl)amino)-5-methoxyphenyl)pentanoic acid] | – | 50200 | 9.6 µM | 0.23 nM
COc1cc(NC(C(=O)N2CCc3cc(F)c(OC(F)(F)F)cc32)c2ccc(Cl)cc2)cc(OCC2CC2C(=O)O)c1 (single isomer, unassigned) [Compound 26A, (1R*,2R*)-2-((3-((1-(4-chlorophenyl)-2-(5-fluoro-6-(trifluoromethoxy)indolin-1-yl)-2-oxoethyl)amino)-5-methoxyphenoxy)methyl)-cyclopropanecarboxylic Acid] | 0.1 nM | >12200 | 14 µM | –
COc1cc(NC(C(=O)N2CCc3ccc(OC(F)(F)F)cc32)c2ccc(Cl)cc2OC)cc(OCCC(C)C(=O)O)c1 (single isomer, unassigned) [Compound 17A] | 76 nM | 147 | 11 µM | –
COc1cc(NC(C(=O)N2CCc3cc(OC)c(C(F)(F)F)cc32)c2ccc(Cl)cc2)cc(OCCC(C)(C)C(=O)O)c1 (racemic) [Compound 21, 4-(3-((1-(4-chlorophenyl)-2-(5-methoxy-6-(trifluoromethyl)indolin-1-yl)-2-oxoethyl)amino)-5-methoxyphenoxy)-2,2-dimethylbutanoic acid] | – | 11000 | 15 µM | 1.1 nM
COc1cc(NC(C(=O)N2CCc3cc(OC)c(C(F)(F)F)cc32)c2ccc(Cl)cc2)cc(OC2CC(C(=O)O)C2)c1 (stereo not drawn) [Compound 23A] | 34 nM | 321 | 11 µM | –
COc1cc(NC(C(=O)N2CCc3cc(OC)c(C(F)(F)F)cc32)c2ccc(Cl)cc2)cc(OCCC(C)C(=O)O)c1 (single isomer, unassigned) [Compound 20A] | 440 nM | 27 | 12 µM | –
COc1cc(NC(C(=O)N2CCc3ccc(OC(F)(F)F)cc32)c2ccc(Cl)cc2)cc(OCCC(C)C(=O)O)c1 (racemic) [Compound 1, 4-(3-((1-(4-chlorophenyl)-2-oxo-2-(6-(trifluoromethoxy)indolin-1-yl)ethyl)amino)-5-methoxyphenoxy)-2-methylbutanoic acid] | – | 24400 | 11 µM | 0.5 nM
COc1cc(NC(C(=O)N2CCc3cc(OC)c(C(F)(F)F)cc32)c2ccc(Cl)cc2)cc(O[C@H]2C[C@@H](C(=O)O)C2)c1 (stereo partly drawn) [Compound 23, (1s,3s)-3-(3-((1-(4-chlorophenyl)-2-(5-methoxy-6-(trifluoromethyl)indolin-1-yl)-2-oxoethyl)amino)-5-methoxyphenoxy)cyclobutene-carboxylic Acid] | – | 116424 | 12 µM | 0.093 nM
COc1cc(NC(C(=O)N2CCc3ccc(OC(F)(F)F)cc32)c2ccc(Cl)cc2)cc(OCC(C)CC(=O)O)c1 (racemic) [Compound 4, 4-(3-((1-(4-chlorophenyl)-2-oxo-2-(6-(trifluoromethoxy)indolin-1-yl)ethyl)amino)-5-methoxyphenoxy)-3-methylbutanoic acid] | – | 73900 | 10 µM | 0.14 nM
COc1cc(NC(C(=O)N2CCc3cc(F)c(OC(F)(F)F)cc32)c2ccc(Cl)cc2)cc(OC2CC(C(=O)O)C2)c1 (stereo not drawn) [Compound 27, ((1s,3s)-3-(3-((1-(4-chlorophenyl)-2-(5-fluoro-6-(trifluoromethoxy)indolin-1-yl)-2-oxoethyl)amino)-5-methoxyphenoxy)cyclobutene-carboxylic Acid] | 0.067 nM | 149640 | 13 µM | –
COc1cc(COCCC(=O)O)cc(NC(C(=O)N2CCc3ccc(OC(F)(F)F)cc32)c2ccc(Cl)cc2)c1 (racemic) [Compound 16, 3-((3-((1-(4-chlorophenyl)-2-oxo-2-(6-(trifluoromethoxy)indolin-1-yl)ethyl)amino)-5-methoxybenzyl)oxy)propanoic acid] | – | 56100 | 16 µM | 0.33 nM
